Assay results taken from article PMC12203311, “Design, synthesis, in silico and in vitro evaluation of pyrrole–indole hybrids as dual tubulin and aromatase inhibitors with potent anticancer activities” (RSC Advances, 2025).

What was measured:
[1] = test system: CAKI-1; experiment: NCI60 five-dose screen; format: cell-based; details: Homo sapiens, CAKI-1, renal cancer; for CC50: read-out: LC50 (the source's name)
[2] = test system: HT29; experiment: NCI60 five-dose screen; format: cell-based; details: Homo sapiens, HT-29, HT29, colon cancer; for CC50: read-out: LC50 (the source's name)
[3] = Cytotoxicity MTT assay, L929; format: cell-based, mouse; details: mouse, L929 fibroblast cells; MTT, 48 hours
Experimental: (§1) T47D (ATCC HTB-133) was purchased from Biomedia (Thailand) Co., LTD. L929 (ATCC CCL-1) was received as a gift from Prof. Tanapat Palaga, Department of Microbiology, Faculty of Science, Chulalongkorn University, Bangkok, Thailand. The cells were cultured in Dulbecco's Modified Eagle's Medium (DMEM; Gibco) supplemented with 10% fetal bovine serum (FBS; HyClone), 100 U mL^−1 penicillin and 100 µg mL^−1 streptomycin (Gibco) at 37 °C with 5% CO2.
(§2) The antiproliferative activity was determined by MTT assay. Briefly, the cells were plated into a 96-well microplate at the density of 10 000 cells per well. The cells were allowed to grow overnight before treated with the solutions of compounds in culture medium at the designated concentrations for 48 hours. The medium was then replaced with MTT solution (0.5 mg mL^−1 MTT in culture medium) and incubated for 3 hours. A 100 µL of DMSO was used to dissolve the produced formazan. Absorbance at 570 nm was then measured using a microplate reader (Varioskan™ LUX multimode microplate reader, Thermo Scientific™). Percent viability was calculated relative to the vehicle control (DMSO).

[4] = test system: L929 normal mouse fibroblast cell line; experiment: Cytotoxicity MTT assay, L929; format: cell-based; details: IC50 (L929)/IC50 (T47D)
Experimental: as §1, §2

[5] = test system: SNB-75; experiment: NCI60 five-dose screen; format: cell-based; details: Homo sapiens, SNB-75, CNS cancer; for CC50: read-out: LC50 (the source's name)
[6] = test system: TK-10; experiment: NCI60 five-dose screen; format: cell-based; details: Homo sapiens, TK-10, renal cancer; for CC50: read-out: LC50 (the source's name)
[7] = test system: UACC-62; experiment: NCI60 five-dose screen; format: cell-based; details: Homo sapiens, UACC-62, melanoma; for CC50: read-out: LC50 (the source's name)
[8] = test system: SK-MEL-28; experiment: NCI60 five-dose screen; format: cell-based; details: Homo sapiens, SK-MEL-28, melanoma; for CC50: read-out: LC50 (the source's name)
[9] = test system: SN12C; experiment: NCI60 five-dose screen; format: cell-based; details: Homo sapiens, renal cancer; for CC50: read-out: LC50 (the source's name)
[10] = test system: RPMI-8226; experiment: NCI60 five-dose screen; format: cell-based; details: Homo sapiens, RPMI-8226, leukemia; for CC50: read-out: LC50 (the source's name)
[11] = test system: BT-549; experiment: NCI60 five-dose screen; format: cell-based; details: Homo sapiens, BT-549, breast cancer; for CC50: read-out: LC50 (the source's name)
[12] = test system: OVCAR-5; experiment: NCI60 five-dose screen; format: cell-based; details: Homo sapiens, OVCAR-5, ovarian cancer; for CC50: read-out: LC50 (the source's name)
[13] = test system: 786-0; experiment: NCI60 five-dose screen; format: cell-based; details: Homo sapiens, 786-0, renal cancer; for CC50: read-out: LC50 (the source's name)
[14] = test system: T47D breast cancer cell line; experiment: Cytotoxicity MTT assay, T47D; format: cell-based, human; details: Homo sapiens, T47D; MTT, 48 hours
In short: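 T47D breast cancer and L929 mouse fibroblasts in DMEM/10% FBS, seeded at 10 000 cells/well and grown overnight. Compounds at designated concentrations for 48 h at 37 °C, then 0.5 mg/mL MTT for 3 h. Formazan dissolved in DMSO, A570 read, viability as % of DMSO vehicle.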

[15] = test system: CCRF-CEM; experiment: NCI60 five-dose screen; format: cell-based; details: Homo sapiens, leukemia; for CC50: read-out: LC50 (the source's name)
[16] = test system: OVCAR-3; experiment: NCI60 five-dose screen; format: cell-based; details: Homo sapiens, OVCAR-3, ovarian cancer; for CC50: read-out: LC50 (the source's name)
[17] = test system: ACHN; experiment: NCI60 five-dose screen; format: cell-based; details: Homo sapiens, renal cancer; for CC50: read-out: LC50 (the source's name)
[18] = test system: SF-268; experiment: NCI60 five-dose screen; format: cell-based; details: Homo sapiens, SF-268, CNS cancer; for CC50: read-out: LC50 (the source's name)
[19] = test system: LOX IMVI; experiment: NCI60 five-dose screen; format: cell-based; details: Homo sapiens, melanoma; for CC50: read-out: LC50 (the source's name)
[20] = test system: HCT-116; experiment: NCI60 five-dose screen; format: cell-based; details: Homo sapiens, HCT-116, colon cancer; for CC50: read-out: LC50 (the source's name)
[21] = test system: IGROV1; experiment: NCI60 five-dose screen; format: cell-based; details: Homo sapiens, IGROV-1; IGROV1, ovarian cancer
[22] = test system: A498; experiment: NCI60 five-dose screen; format: cell-based; details: Homo sapiens, A498, renal cancer; for CC50: read-out: LC50 (the source's name)
[23] = test system: SK-MEL-5; experiment: NCI60 five-dose screen; format: cell-based, human; details: Homo sapiens; for CC50: SK-MEL-5, SK-MEL-5, melanoma, read-out: LC50 (the source's name); for GI50: SK-MEL-5, melanoma
[24] = test system: HOP-62; experiment: NCI60 five-dose screen; format: cell-based; details: Homo sapiens, HOP-62, NSC lung cancer; for CC50: read-out: LC50 (the source's name)
[25] = test system: MDA-MB-468; experiment: NCI60 five-dose screen; format: cell-based; details: Homo sapiens, MDA-MB-468, breast cancer; for CC50: read-out: LC50 (the source's name)
[26] = test system: U251; experiment: NCI60 five-dose screen; format: cell-based; details: Homo sapiens, U-251, U251, CNS cancer; for CC50: read-out: LC50 (the source's name)
[27] = test system: PC-3; experiment: NCI60 five-dose screen; format: cell-based; details: Homo sapiens, PC-3, prostate cancer; for CC50: read-out: LC50 (the source's name)
[28] = test system: SK-MEL-2; experiment: NCI60 five-dose screen; format: cell-based; details: Homo sapiens, SK-MEL-2, melanoma; for CC50: read-out: LC50 (the source's name)
[29] = test system: HOP-92; experiment: NCI60 five-dose screen; format: cell-based; details: Homo sapiens, HOP-92, NSC lung cancer; for CC50: read-out: LC50 (the source's name)
[30] = test system: COLO 205; experiment: NCI60 five-dose screen; format: cell-based, human; details: Homo sapiens; for CC50: COLO 205, COLO 205, colon cancer, read-out: LC50 (the source's name); for GI50: COLO 205, colon cancer

O=C(N/N=C/c1cc(Cl)c[nH]1)c1[nH]c2ccc(Br)cc2c1-c1ccccc1 [Derivative 3h, (E)-5-Bromo-N′-((4-chloro-1H-pyrrol-2-yl)methylene)-3-phenyl-1H-indole-2-carbohydrazide]
GI50 [1]: 0.253 µM
CC50 [1]: 27.5 µM
GI50 [2]: 0.287 µM
CC50 [2]: 7.2 µM
IC50 at 48 h [3]: 53.7 ± 30.4 µM
Selectivity index (SI) [4]: 22.4
GI50 [5]: 0.247 µM
CC50 [5]: 75.5 µM
GI50 [6]: 3.91 µM
CC50 [6]: 83.2 µM
GI50 [7]: 0.559 µM
CC50 [7]: 66.3 µM
GI50 [8]: 0.582 µM
CC50 [8]: 47.9 µM
GI50 [9]: 0.391 µM
CC50 [9]: 15.3 µM
GI50 [10]: 0.446 µM
CC50 [10]: > 100 µM
GI50 [11]: 0.255 µM
CC50 [11]: 18.1 µM
GI50 [12]: 0.473 µM
CC50 [12]: 36 µM
GI50 [13]: 0.459 µM
CC50 [13]: 39.8 µM
IC50 [14]: 2.4 ± 1.8 µM
GI50 [15]: 0.132 µM
CC50 [15]: > 100 µM
GI50 [16]: 0.27 µM
CC50 [16]: 19.7 µM
GI50 [17]: 0.493 µM
CC50 [17]: 32.1 µM
GI50 [18]: 0.388 µM
CC50 [18]: 77.3 µM
GI50 [19]: 0.37 µM
CC50 [19]: 16.7 µM
GI50 [20]: 0.331 µM
CC50 [20]: 29.1 µM
GI50 [21]: 0.538 µM
GI50 [22]: 1.45 µM
CC50 [22]: 42.1 µM
CC50 [23]: 3.08 µM
GI50 [23]: 0.228 µM
GI50 [24]: 0.408 µM
CC50 [24]: 34.7 µM
GI50 [25]: 0.251 µM
CC50 [25]: 27.8 µM
GI50 [26]: 0.349 µM
CC50 [26]: 24.9 µM
GI50 [27]: 0.426 µM
CC50 [27]: 47.6 µM
GI50 [28]: 0.26 µM
CC50 [28]: 47.9 µM
GI50 [29]: 1.19 µM
CC50 [29]: 55.4 µM
CC50 [30]: 1.88 µM
GI50 [30]: 0.251 µM

CCOC(=O)c1c[nH]c(/C=N/NC(=O)c2[nH]c3ccc(Br)cc3c2-c2ccccc2)c1 [Derivative 3j, Ethyl (E)-5-((2-(5-bromo-3-phenyl-1H-indole-2-carbonyl)hydrazono)methyl)-1H-pyrrole-3-carboxylate]
GI50 [1]: 1.46 µM
CC50 [1]: 40.5 µM
GI50 [2]: 2.59 µM
CC50 [2]: 27.5 µM
IC50 at 48 h [3]: 12.2 ± 1 µM
Selectivity index (SI) [4]: 1.17
GI50 [5]: 1.09 µM
CC50 [5]: 35.8 µM
GI50 [6]: 7.35 µM
CC50 [6]: 46.2 µM
GI50 [7]: 2.92 µM
CC50 [7]: 42.6 µM
GI50 [8]: 4.56 µM
CC50 [8]: 45.8 µM
GI50 [9]: 2.49 µM
CC50 [9]: 33.3 µM
GI50 [10]: 2.52 µM
CC50 [10]: > 100 µM
GI50 [11]: 2.23 µM
CC50 [11]: 29.5 µM
GI50 [12]: 3.87 µM
CC50 [12]: 42.9 µM
GI50 [13]: 3.29 µM
CC50 [13]: 44.7 µM
IC50 [14]: 10.4 ± 2.9 µM
GI50 [15]: 2.41 µM
CC50 [15]: > 100 µM
GI50 [16]: 2.13 µM
CC50 [16]: 23.1 µM
GI50 [17]: 3.39 µM
CC50 [17]: 36.4 µM
GI50 [18]: 2.29 µM
CC50 [18]: 46.3 µM
GI50 [19]: 2.82 µM
CC50 [19]: 40.9 µM
GI50 [20]: 2.95 µM
CC50 [20]: 45.6 µM
GI50 [21]: 3.91 µM
GI50 [22]: 3.53 µM
CC50 [22]: 43.4 µM
CC50 [23]: 10.1 µM
GI50 [23]: 1.44 µM
GI50 [24]: 2.78 µM
CC50 [24]: 54.4 µM
GI50 [25]: 2.47 µM
CC50 [25]: 24.2 µM
GI50 [26]: 2.66 µM
CC50 [26]: 40.6 µM
GI50 [27]: 3.76 µM
CC50 [27]: > 100 µM
GI50 [28]: 2.8 µM
CC50 [28]: 32.8 µM
GI50 [29]: 4.56 µM
CC50 [29]: 58.6 µM
CC50 [30]: 55.2 µM
GI50 [30]: 2.49 µM

O=C(N/N=C/c1ccc(C(=O)N2CCOCC2)[nH]1)c1[nH]c2ccc(Br)cc2c1-c1ccccc1 [Derivative 3n, (E)-5-Bromo-N′-((5-(morpholine-4-carbonyl)-1H-pyrrol-2-yl)methylene)-3-phenyl-1H-indole-2-carbohydrazide]
GI50 [1]: 1.46 µM
CC50 [1]: > 100 µM
GI50 [2]: 2.57 µM
CC50 [2]: 38.3 µM
IC50 at 48 h [3]: 21.8 ± 11.5 µM
Selectivity index (SI) [4]: 4.04
GI50 [5]: 0.809 µM
CC50 [5]: 88.9 µM
GI50 [6]: 10.4 µM
CC50 [6]: > 100 µM
GI50 [7]: 0.864 µM
CC50 [7]: 63.7 µM
GI50 [8]: 6.1 µM
CC50 [8]: > 100 µM
GI50 [9]: 3.14 µM
CC50 [9]: 79.7 µM
GI50 [10]: 4.5 µM
CC50 [10]: > 100 µM
GI50 [11]: 2.36 µM
CC50 [11]: 55.2 µM
GI50 [12]: 5.78 µM
CC50 [12]: > 100 µM
GI50 [13]: 2.86 µM
CC50 [13]: 80.7 µM
IC50 [14]: 5.4 ± 4.8 µM
GI50 [15]: 3.45 µM
CC50 [15]: > 100 µM
GI50 [16]: 2.57 µM
CC50 [16]: 47.4 µM
GI50 [17]: 4.56 µM
CC50 [17]: > 100 µM
GI50 [18]: 2.51 µM
CC50 [18]: > 100 µM
GI50 [19]: 3.06 µM
CC50 [19]: 71.2 µM
GI50 [20]: 2.79 µM
CC50 [20]: 66.7 µM
GI50 [21]: 6.69 µM
GI50 [22]: 3.53 µM
CC50 [22]: 59.9 µM
CC50 [23]: 17 µM
GI50 [23]: 1.48 µM
GI50 [24]: 3.36 µM
CC50 [24]: 69.2 µM
GI50 [25]: 1.98 µM
CC50 [25]: 75.5 µM
GI50 [26]: 3.1 µM
CC50 [26]: 84.7 µM
GI50 [27]: 3.44 µM
CC50 [27]: > 100 µM
GI50 [28]: 2.8 µM
CC50 [28]: 48.3 µM
GI50 [29]: 6.14 µM
CC50 [29]: > 100 µM
CC50 [30]: 37.5 µM
GI50 [30]: 3.12 µM
